Laboratory results published in paper PMC3515654 (ChemMedChem, 2011).
Values belong to the compound of their own block, whether it stands above or below them.

Key:
[1] = molecular target: D1-like dopamine receptors (Sus scrofa, UniProt P50130); format: binding; conditions: porcine striatum; for Fold D1-like Selectivity: ratio of D2-like Ki to D1-like Ki
[2] = molecular target: D2-like dopamine receptors (Sus scrofa, UniProt A0ACM8QMZ9); conditions: porcine striatal binding, D1-like vs D2-like
[3] = pKa of synthetic acids, used for separation by titration; format: physicochemical

Chain of D1-like dopamine receptors (P50130 whole entry): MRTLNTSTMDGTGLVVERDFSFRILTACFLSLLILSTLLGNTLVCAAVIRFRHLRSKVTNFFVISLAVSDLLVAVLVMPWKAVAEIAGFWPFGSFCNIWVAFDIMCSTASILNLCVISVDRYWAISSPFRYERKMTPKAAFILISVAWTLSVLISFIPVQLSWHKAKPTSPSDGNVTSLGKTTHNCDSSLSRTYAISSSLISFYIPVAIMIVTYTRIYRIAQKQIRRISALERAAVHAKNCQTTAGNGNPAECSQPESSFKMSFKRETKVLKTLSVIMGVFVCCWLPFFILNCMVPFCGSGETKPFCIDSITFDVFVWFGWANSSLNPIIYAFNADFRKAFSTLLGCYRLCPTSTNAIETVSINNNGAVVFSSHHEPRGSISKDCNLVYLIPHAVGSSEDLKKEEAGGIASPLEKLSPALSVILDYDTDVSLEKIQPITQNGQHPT
Chain of D2-like dopamine receptors (A0ACM8QMZ9 1-443): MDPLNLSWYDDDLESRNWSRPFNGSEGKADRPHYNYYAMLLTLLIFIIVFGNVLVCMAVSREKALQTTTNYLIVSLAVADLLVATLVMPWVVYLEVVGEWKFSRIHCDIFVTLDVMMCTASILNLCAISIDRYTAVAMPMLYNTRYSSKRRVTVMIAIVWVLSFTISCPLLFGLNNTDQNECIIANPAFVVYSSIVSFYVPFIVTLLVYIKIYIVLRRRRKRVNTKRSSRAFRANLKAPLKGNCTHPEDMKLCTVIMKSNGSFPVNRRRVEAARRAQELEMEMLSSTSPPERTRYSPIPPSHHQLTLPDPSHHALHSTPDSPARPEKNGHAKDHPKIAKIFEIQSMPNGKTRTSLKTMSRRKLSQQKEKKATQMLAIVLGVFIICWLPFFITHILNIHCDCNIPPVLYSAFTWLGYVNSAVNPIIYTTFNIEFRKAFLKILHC

Structure (SMILES): Br.NC[C@H]1C[C@@H](C23CC4CC(CC(C4)C2)C3)Cc2c1ccc(O)c2O (relative stereo) [3c, Cis-5-(aminomethyl)-7-adamantyl-5,6,7,8-tetrahydronaphthalene-1,2-diol hydrobromide]
Fold higher binding affinity at D1-like receptors compared to 2c ([1]; relative to 2c): ~20 fold | Fold D1-like Selectivity [1]: 55 fold

Structure (SMILES): NC[C@@H]1O[C@H](C23CC4CC(CC(C4)C2)C3)Cc2c1ccc(O)c2O [1c, reference compound]
Fold D1-like Selectivity [1]: 480 fold

Structure (SMILES): Cl.NCC1CCOc2c1ccc(O)c2O (stereo not drawn) [2a, 7,8-Dihydroxy-4-aminomethylchroman hydrochloride]
Receptor subtype selectivity [2]: selectivity for D2-like receptors

Results, then the compound that gave them:

Fold D1-like Selectivity [1]: 92 fold
Structure (SMILES): NC[C@@H]1O[C@H](c2ccccc2)Cc2c1ccc(O)c2O [1d, reference compound]

pKa [3]: ~3.6
Structure (SMILES): COc1cccc(C2OC(=O)CC2C(=O)O)c1OC (stereo not drawn) [compound 18, 2-(2,3-Dimethoxyphenyl)-5-oxo-tetrahydrofuran-3-carboxylic acid]
